# From patent US20240024365A1, “POTENTIATION OF BONE MARROW CELL ACTIVITY BY COADMINISTRATION WITH OXYTOCIN” (CREATIVE MEDICAL TECHNOLOGIES, INC., priority 2022, published 2024)
# Legend:
# [1] = system: CD3/CD28 stimulated T cell proliferation; test: CD3/CD28 stimulation of ProCell (oxytocin) treated bone marrow mononuclear cells: proliferation and cytokines; assay type: cell-based
# Description: (§1) Methods: Immune modulatory activity of ProCell (oxytocin) was assessed by treatment of bone marrow mononuclear cells with ProCell (oxytocin) and subsequently assayed for proliferative ability and cytokine in response to CD3/CD28 stimulation. The concentration and incubation time of ProCell (oxytocin) identified for maximal immune modulatory effect was used to treat syngeneic bone marrow cells prior to implantation in the SJL/J model of EAE. Cell transplant experiments involving transfer of mesenchymal stem cells (CD105), monocytes (CD14), T cells (CD3) and B cells (CD20) where performed to identify the cellular population responsible for disease protective effect.
# [2] = system: experimental autoimmune encephalomyelitis (EAE); test: SJL/J model of experimental autoimmune encephalomyelitis (EAE), syngeneic bone marrow cells cultured in ProCell; assay type: in vivo
# Description: as §1
# critical limb ischemia = test: Pilot study in patients with critical limb ischemia; assay type: in vivo, human patients
# Description: Three patients suffering from critical limb ischemia were recruited. Patients matched the following inclusion criteria. a. Unreconstructable arterial disease was determined by a vascular surgeon who is not participating in the study. Unreconstructable arterial disease is defined by atherocclusive lesions within the arterial tree of the extremity that due to extent or morphology are not amenable to surgical bypass or PTCA and stenting. b. Objective evidence of severe peripheral arterial disease includes an ankle brachial index (ABI) of less than 0.55, and/or a resting toe brachial index (TBI) of […]. c. Patients must be competent to give consent. d. No history of malignant disease except for nonmelanoma skin cancer, no suspicious findings on chest x-ray, mammography (women over age 35), Papanicolaou smear (women over age 40), a normal fecal occult blood (over age 50) and a normal prostate specific antigen (men over age 45). Patients were injected with 10(8) bone-marrow mononuclear cells/aspirate, and administration of ProCell(oxytocin) was performed concurrently. Injections were performed using 10 million cells per injection, with 10 injections locally at the area of failed perfusion in a 10 cm×10 cm area in the gastrocnemius muscle. Ankle Brachial index was measured by comparing the ankle and brachial pressure.
# hindlimb ischemia = test: Hindlimb ischemia assay (femoral artery ligation), limb survival; assay type: in vivo, mice
# Description: Methods: ProCell(oxytocin) was assessed for ability to stimulate human umbilical vein endothelial cell (HUVEC) proliferation in vitro. Selected compounds where tested for ability to stimulate colony and tube formation. In vivo angiogenic activity was tested by administration of bone marrow mononuclear cells alone, or ProCell-treated bone marrow mononuclear cells in the hindlimb ischemia assay. Bone marrow mononuclear cells where obtained from syngeneic mice. Cells where administered at a concentration of 1 million cells per leg intramuscularly on days 0, 2, and 4, Oxytocin was injected in the same area on the same days at a concentration of 0.1 IU per mouse. Injury was induced by ligation of the femoral artery and neurotrophic injury was induced. Limb survival was quantified.
# [3] = system: human umbilical vein endothelial cell (HUVEC); test: HUVEC proliferation in vitro; assay type: cell-based; details: compared among 73 factors tested
# Description: (§2) Methods: ProCell(oxytocin) was assessed for ability to stimulate human umbilical vein endothelial cell (HUVEC) proliferation in vitro. Selected compounds where tested for ability to stimulate colony and tube formation. In vivo angiogenic activity was tested by administration of bone marrow mononuclear cells alone, or ProCell-treated bone marrow mononuclear cells in the hindlimb ischemia assay.
# [4] = system: allogeneic peripheral blood mononuclear cells (mixed lymphocyte reaction); test: Mixed lymphocyte reaction (MLR) with ProCell (oxytocin) treated cord blood CD14 monocytes; assay type: cell-based, human; details: for Proliferation in MLR: ProCell treated CD14 monocytes added to MLR, tritiated thymidine; for Treg (FoxP3) generation in MLR: flow cytometry
# Description: Methods: UCBMNC where treated with ProCell (oxytocin) and monocytic populations where extracted by CD14 Magnetic Activated Cell Separation (MACS). Immune modulatory activity of isolated cells was examined by coculture with allogeneic lymphocytes, as well as added to ongoing mixed lymphocyte reaction (MLR). Proliferation and cytokine production was assessed. Furthermore generation of T regulatory cells was examined by flow cytometry for FoxP3 and ability to suppress T cell proliferation stimulated by CD3/CD28.
# Cryopreserved human umbilical cord mononuclear cells (UB-MNCs) were obtained from All Cells, LLC. Immediately prior to the experiment the UBMNC s were thawed in a 37° C. water bath for about one minute and then washed twice in 10 ml PBS with 100 μl DNase (Sigma #D4527-40KU, 1 mg/ml). The number of viable cells was determined using the trypan blue exclusion method. Cell viability generally ranged from 80% to 90%.
# Using magnetic antibody cell sorting (MACS), UB-MNCs were selected CD14+ monocytes, the MNC were centrifuged at 1000 rpm×10 minutes, the supernatant aspirated and the cells resuspended in 80 μl of buffer per […] and incubated at 4° C. for 15 min. Antibody conjugated paramagnetic microbeads CD14 labeled beads (cat #130-050-201, Miltenyi Biotechwere used to enrich for monocytes. After incubation, the cells were washed with buffer and centrifuged at 1000 rpm for 10 min. The cells were resuspended in 500 μl of buffer, then passed through a magnetic column that trapped the paramagnetic beads and the cells they were attached to (AutoMacs Pro). The magnetic field was disengaged and the cells collected.
# CD14 cells were cultured in ProCell (oxytocin) at various concentrations in Opti-Mem media with 10% fetal calf serum for 1 hour at 37 Celsius. Cells where subsequently washed in Phosphate Buffered Saline and plated in vitro. Assessment of Treg generation was performed in mixed lymphocyte reaction with allogeneic peripheral blood mononuclear cells. The culture lasted either 48 or 72 hours and various concentrations of ProCell (oxytocin) treated cord blood CD14 expressing cells where added to the responding PBMC. Evaluation of proliferation was performed using the tritiated thymidine method, and cytokine production was measured using ELISA.
# Additionally, the stimulation of FoxP3 expression was performed by flow cytometry using fixation and permeabiliization method.
# [5] = system: bone marrow mononuclear cells / endothelial progenitors; test: Endothelial colony and tube formation of bone marrow cells; assay type: cell-based, human; details: for Endothelial colony formation: bone marrow cells incubated in ProCell, semi-solid media with endothelial differentiation cocktail
# Description: as §2
# Bone marrow was aspirated from patients 3 patients 18-25 years old (Young Patients) and 3 patients 65-80 years old (Old Patients). The cells were either incubated in saline for 30 minutes or incubated in ProCell(oxytocin). Bone marrow cells were evaluated. Evaluation of colony formation was performed by plating mononuclear cells in semi-solid media containing endothelial differentiation cocktail. Number of colonies where counted.
# [6] = bone marrow cells with concurrent ProCell, patients
# [7] = ProCell treated monocytes, ELISA
compound,measurement,setting,value
"CC[C@H](C)[C@@H]1NC(=O)[C@H](Cc2ccc(O)cc2)NC(=O)[C@@H](N)CSSC[C@@H](C(=O)N2CCC[C@H]2C(=O)N[C@@H](CC(C)C)C(=O)NCC(N)=O)NC(=O)[C@H](CC(N)=O)NC(=O)[C@H](CCC(N)=O)NC1=O [ProCell, Oxytocin]",IFN-gamma production,[1]; CD3/CD28 stimulation,inhibition
same,IL-10 production,[1]; CD3/CD28 stimulation,upregulation
same,IL-12 production,[1]; CD3/CD28 stimulation,inhibition
same,TGF-beta production,[1]; CD3/CD28 stimulation,upregulation
same,CD3/CD28 stimulated T cell proliferation,[1]; bone marrow mononuclear cells treated with ProCell,inhibitory effect
same,Relapse of EAE,[2]; animals treated with ProCell cultured cells,accelerated reduction of relapse
same,Inhibition of EAE,[2]; animals treated with ProCell cultured syngeneic bone marrow cells,Dose dependent inhibition of EAE
same,FoxP3 expressing cells,[2]; correlated with disease inhibition,increased FoxP3 expressing cells
same,Amputation during the study period,critical limb ischemia; 10(8) bone-marrow mononuclear cells/aspirate with concurrent ProCell,No patients reported amputation
same,"Critical limb ischemia, before and after photographs",critical limb ischemia; bone marrow cells with ProCell,improving critical limb ischemia
same,Ankle brachial index,critical limb ischemia; [6],improving
same,Ankle pressure,critical limb ischemia; [6],improving
same,Limb loss,hindlimb ischemia; ProCell incubated bone marrow cells,prevents limb loss
same,Limb loss,"hindlimb ischemia; ProCell incubated bone marrow cells, listed as ProCell(oxytocin)",prevent limb loss
same,Neoangiogenesis in hindlimb ischemia model,hindlimb ischemia; bone marrow mononuclear cells/aspirate incubated with ProCell,enhanced ability to stimulate neoangiogenesis
same,Limb loss,hindlimb ischemia; localized separate intramuscular administration of ProCell and bone marrow mononuclear cells/aspirate,prevention of limb loss
same,Stimulation of HUVEC proliferation,[3],highest stimulatory activity
same,Proliferation in MLR,[4],suppress proliferation
same,Proliferation in MLR,[4]; listed as ProCell (oxytocin),actively inhibited ongoing MLR
same,TGF-beta in MLR,[4]; ProCell treated monocytes,augmentation
same,IFN-gamma in MLR,[4]; [7],suppress IFN-Gamma
same,IL-10 in MLR,[4]; [7],enhances IL-10
same,IL-10 in MLR,"[4]; ProCell treated monocytes, ELISA, listed as ProCell (oxytocin)",augmentation
same,Treg (FoxP3) generation in MLR,[4]; ProCell treated monocytes,enhances Treg (FoxP3)
same,Treg (FoxP3) generation in MLR,"[4]; ProCell treated monocytes, listed as ProCell (oxytocin)",in vitro generation of active T regulatory cells was observed
same,Stimulation of allogeneic T cell proliferation,[4]; coculture of ProCell cultured CD14 cells with allogeneic lymphocytes,did not stimulate allogeneic T cell proliferation
same,Endothelial colony formation,[5],increases endothelial colony formation
same,Endothelial colony formation,[5]; listed as ProCell(oxytocin),potent induction
same,Tube formation,[5]; endothelial progenitors and non-purified bone marrow mononuclear cells,potent induction
